The values below come from US20240360113A1, “AMINOARYL-INTEGRIN AGONISTS COMPOUNDS” (Texas Heart Institute, priority 2021, published 2024).

One test deals with T1, αLβ2/ICAM-1 (Homo sapiens, UniProt P05107+P20701).
T1 construct: The Jurkat (VCAM-1 assays) and HSB (ICAM-1 assays) cell lines were obtained from American Type Culture Collection; endogenous in cells; host or cells: HSB (ATCC)
As to the kind of experiment: Static cell adhesion assay, HSB cells on ICAM-1 (LFA-1; LAD). The class given is cell-based. The conditions noted are these: RFU of compound / RFU of THI0349, both at the same concentration. As to the method:
(§1) For in vitro cell adhesion assays, compounds were dissolved in DMSO to make a series of stock solutions such that a 1:100 dilution in assay buffer would yield the desired final working concentrations in 1% DMSO (vehicle). Human VCAM-1 and ICAM-1 were purchased from R&D Systems (Minneapolis, MN). The Jurkat (VCAM-1 assays) and HSB (ICAM-1 assays) cell lines were obtained from American Type Culture Collection (Manassas, VA) and were maintained in recommended culture media.
(§2) Assays were performed as previously described in Vanderslice et al., (2010), Biochem Biophys Res Commun 400, 619-624; and Vanderslice et al., (2013) J Biol Chem 288, 19414-19428. VCAM-1 or ICAM-1 ligand in 50 μL of 50 mM Tris-HCl (pH 7.4), 150 mM NaCl, (TBS) was added to wells of a 96-well plate and allowed to coat overnight at 4° C. To maximize the window to evaluate agonist activity, a sub-optimal coating concentration of ligand was used, typically 0.5 and 5 μg/mL in 50 μL TBS for VCAM-1 and ICAM-1 respectively. This ligand concentration corresponded approximately to that which would yield <5% adhesion as determined by dose-response curves. Briefly, 2×10^6 cells were labeled for 30 minutes with calcein-AM (Molecular Probes), washed, resuspended in binding buffer, and added to triplicate wells of ligand-coated plates (2×10^5 cells/well) that had been blocked with 2% BSA. After a 30-minute incubation at 37° C., the plates were washed 3 times with binding buffer, the adherent cells were lysed, and fluorescence was measured on a Tecan Safire^2 plate reader. The binding buffer was PBS with 1 mM MgCl2, 50% FBS for α4β1/VCAM-1 assays and PBS with 2 mM MgCl2, 5 mM EGTA, 50% FBS for αLβ2/ICAM-1 assays. EC50 is defined as the concentration of compound required to achieve 50% of the maximal response.
In relation to LAD (Leukocyte Adhesion Deficiency), LFA-1 ratios are determined by dividing the relative fluorescence units (RFU) of each compound at a concentration of 3 μM over that of the reference standard of THI0349, also at 3 μM, (RFU Compound/RFU of THI0349). Log Ps were calculated by either Chemdraw® version 12 (CambridgeSoft) or ACD/Chemsketch® (ACD/Labs).

The target of a further test is T2, α4β1/VCAM-1 (Homo sapiens, UniProt P05556+P13612).
T2 construct: The Jurkat (VCAM-1 assays) and HSB (ICAM-1 assays) cell lines were obtained from American Type Culture Collection; endogenous in cells; host or cells: Jurkat (ATCC)
T2 sequence (P13612 34-1032): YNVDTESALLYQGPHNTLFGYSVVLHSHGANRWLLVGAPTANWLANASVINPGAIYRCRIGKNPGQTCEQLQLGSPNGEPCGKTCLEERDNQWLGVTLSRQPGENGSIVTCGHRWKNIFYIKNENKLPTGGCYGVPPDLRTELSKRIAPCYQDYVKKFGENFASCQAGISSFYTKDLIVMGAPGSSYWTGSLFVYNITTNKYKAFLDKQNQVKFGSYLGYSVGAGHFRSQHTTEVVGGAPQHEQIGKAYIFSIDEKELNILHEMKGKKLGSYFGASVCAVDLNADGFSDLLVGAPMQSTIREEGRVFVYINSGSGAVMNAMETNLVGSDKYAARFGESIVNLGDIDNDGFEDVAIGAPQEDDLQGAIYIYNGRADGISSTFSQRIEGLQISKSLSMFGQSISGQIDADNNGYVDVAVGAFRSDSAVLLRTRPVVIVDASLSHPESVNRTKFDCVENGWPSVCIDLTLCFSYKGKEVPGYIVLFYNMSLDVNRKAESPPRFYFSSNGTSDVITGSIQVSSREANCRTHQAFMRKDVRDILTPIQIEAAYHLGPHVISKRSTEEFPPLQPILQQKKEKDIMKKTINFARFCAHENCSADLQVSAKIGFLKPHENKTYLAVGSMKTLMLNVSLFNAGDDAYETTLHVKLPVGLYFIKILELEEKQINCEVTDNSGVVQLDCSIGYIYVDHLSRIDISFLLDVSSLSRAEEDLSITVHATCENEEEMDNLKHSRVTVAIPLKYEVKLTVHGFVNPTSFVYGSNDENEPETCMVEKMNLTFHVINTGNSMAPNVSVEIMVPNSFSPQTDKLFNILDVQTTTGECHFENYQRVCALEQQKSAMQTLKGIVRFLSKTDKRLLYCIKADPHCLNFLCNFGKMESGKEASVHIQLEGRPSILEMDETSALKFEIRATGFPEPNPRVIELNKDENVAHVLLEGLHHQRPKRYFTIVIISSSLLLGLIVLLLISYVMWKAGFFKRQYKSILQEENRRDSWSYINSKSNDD
T2 sequence (P05556 21-798): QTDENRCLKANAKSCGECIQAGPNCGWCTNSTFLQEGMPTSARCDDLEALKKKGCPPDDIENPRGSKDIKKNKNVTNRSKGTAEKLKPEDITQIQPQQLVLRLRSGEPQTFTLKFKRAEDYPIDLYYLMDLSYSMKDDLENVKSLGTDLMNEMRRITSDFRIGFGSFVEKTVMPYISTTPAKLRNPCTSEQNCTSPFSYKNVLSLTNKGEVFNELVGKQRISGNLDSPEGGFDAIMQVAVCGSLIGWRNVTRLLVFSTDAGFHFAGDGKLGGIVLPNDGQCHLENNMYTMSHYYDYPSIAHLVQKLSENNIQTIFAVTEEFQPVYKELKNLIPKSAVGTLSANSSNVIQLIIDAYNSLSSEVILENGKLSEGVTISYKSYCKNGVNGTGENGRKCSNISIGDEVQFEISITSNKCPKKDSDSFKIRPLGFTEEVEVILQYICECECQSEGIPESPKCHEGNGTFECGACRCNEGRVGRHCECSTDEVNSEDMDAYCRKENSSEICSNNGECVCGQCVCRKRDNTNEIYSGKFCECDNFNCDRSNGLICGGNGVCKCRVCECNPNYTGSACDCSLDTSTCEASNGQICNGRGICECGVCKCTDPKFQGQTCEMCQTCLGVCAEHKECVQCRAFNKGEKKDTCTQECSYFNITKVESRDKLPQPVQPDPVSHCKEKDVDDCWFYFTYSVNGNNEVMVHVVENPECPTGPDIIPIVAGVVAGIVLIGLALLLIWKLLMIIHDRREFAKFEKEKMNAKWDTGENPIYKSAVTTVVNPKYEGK
As to the kind of experiment: Static cell adhesion assay, Jurkat cells on VCAM-1 (VLA-4 agonist activity). The conditions noted are these: EC50 relative to THI0349 (average 11 uM) run on the same plate; Jurkat cells, 50% FBS. The class given is cell-based. As to the method: as §1, §2

SMILES strings stand for the structures.

T1 sequence (P20701 26-1170): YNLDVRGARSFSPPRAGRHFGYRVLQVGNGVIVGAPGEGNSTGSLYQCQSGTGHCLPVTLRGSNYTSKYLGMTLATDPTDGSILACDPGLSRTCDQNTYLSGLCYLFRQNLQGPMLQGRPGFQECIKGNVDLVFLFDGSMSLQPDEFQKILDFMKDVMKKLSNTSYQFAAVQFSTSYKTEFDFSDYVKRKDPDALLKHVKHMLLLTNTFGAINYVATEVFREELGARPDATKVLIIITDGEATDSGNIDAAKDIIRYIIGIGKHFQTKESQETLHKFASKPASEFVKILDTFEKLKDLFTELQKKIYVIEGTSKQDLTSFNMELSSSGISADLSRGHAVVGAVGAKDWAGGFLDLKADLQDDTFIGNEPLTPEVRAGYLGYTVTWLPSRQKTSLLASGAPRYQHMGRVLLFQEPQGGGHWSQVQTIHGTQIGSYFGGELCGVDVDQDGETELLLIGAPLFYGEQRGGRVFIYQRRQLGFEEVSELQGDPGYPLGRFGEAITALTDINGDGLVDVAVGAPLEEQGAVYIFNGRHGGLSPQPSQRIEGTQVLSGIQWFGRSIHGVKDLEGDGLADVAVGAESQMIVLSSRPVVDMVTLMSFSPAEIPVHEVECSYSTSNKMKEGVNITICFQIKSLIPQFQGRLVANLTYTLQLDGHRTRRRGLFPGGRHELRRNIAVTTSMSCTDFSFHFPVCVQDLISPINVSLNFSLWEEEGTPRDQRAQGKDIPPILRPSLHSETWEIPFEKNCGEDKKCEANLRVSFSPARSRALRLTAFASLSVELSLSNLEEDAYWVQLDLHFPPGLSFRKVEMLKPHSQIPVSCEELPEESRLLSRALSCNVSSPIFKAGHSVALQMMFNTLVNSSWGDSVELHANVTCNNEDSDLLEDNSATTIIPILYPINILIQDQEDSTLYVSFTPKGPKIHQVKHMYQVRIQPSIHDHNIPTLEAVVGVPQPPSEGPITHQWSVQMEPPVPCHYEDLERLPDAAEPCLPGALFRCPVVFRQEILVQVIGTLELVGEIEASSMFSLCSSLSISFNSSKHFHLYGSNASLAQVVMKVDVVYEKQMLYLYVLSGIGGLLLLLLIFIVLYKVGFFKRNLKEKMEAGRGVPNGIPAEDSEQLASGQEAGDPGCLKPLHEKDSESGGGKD
T1 sequence (P05107 23-769): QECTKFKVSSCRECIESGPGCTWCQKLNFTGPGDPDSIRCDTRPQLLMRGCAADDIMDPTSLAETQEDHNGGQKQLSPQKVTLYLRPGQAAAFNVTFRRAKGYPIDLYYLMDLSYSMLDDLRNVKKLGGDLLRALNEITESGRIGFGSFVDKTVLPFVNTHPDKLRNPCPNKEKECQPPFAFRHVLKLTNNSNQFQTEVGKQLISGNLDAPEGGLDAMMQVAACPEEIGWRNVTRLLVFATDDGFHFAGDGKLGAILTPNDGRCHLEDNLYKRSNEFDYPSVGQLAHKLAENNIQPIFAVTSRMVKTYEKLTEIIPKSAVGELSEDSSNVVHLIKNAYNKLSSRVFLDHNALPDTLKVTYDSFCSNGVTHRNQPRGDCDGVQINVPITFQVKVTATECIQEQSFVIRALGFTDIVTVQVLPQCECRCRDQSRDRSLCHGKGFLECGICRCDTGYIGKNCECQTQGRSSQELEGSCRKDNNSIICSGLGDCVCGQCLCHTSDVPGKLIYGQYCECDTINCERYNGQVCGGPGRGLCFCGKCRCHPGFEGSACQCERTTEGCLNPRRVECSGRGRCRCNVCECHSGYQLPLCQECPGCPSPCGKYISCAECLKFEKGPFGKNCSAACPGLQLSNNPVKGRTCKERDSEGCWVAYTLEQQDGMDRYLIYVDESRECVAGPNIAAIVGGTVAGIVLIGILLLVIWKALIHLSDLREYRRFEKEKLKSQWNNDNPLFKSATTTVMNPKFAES

For `CCOC(=O)c1cnc(N(Cc2cccc(OC)c2)Cc2cccc(OC)c2)nc1` [Compound 96, ethyl 2-(bis(3-methoxybenzyl)amino)pyrimidine-5-carboxylate], at αLβ2/ICAM-1, the “LAD Raw Fluorescence Units against LFA-1; Dose 3 µM; Ratio of raw counts Compound/THI0349” value was 0.08. Besides, the “Group against VCAM” value on α4β1/VCAM-1 is on record as “III (Group III more than five times the EC50 of THI0349)”.
Take `COc1ccc(CCCOCc2coc(N(Cc3cccs3)Cc3cccs3)n2)cc1` [Compound 24, 4-((3-(4-methoxyphenyl)propoxy)methyl)-N,N-bis(thiophen-2-ylmethyl)oxazol-2-amine]: the “LAD Raw Fluorescence Units against LFA-1; Dose 3 µM; Ratio of raw counts Compound/THI0349” value on αLβ2/ICAM-1 came to 0.85. Also, the “Group against VCAM” value on α4β1/VCAM-1 is listed as “II (Group II is more than twice that of THI0349 but less than five times THI0349's EC50)”.
For the compound `COc1cccc(CN(Cc2cccc(OC)c2)c2nc(CN3CCOCC3)cs2)c1` [Compound 67, N,N-bis(3-methoxybenzyl)-4-(morpholinomethyl)thiazol-2-amine], the “LAD Raw Fluorescence Units against LFA-1; Dose 3 µM; Ratio of raw counts Compound/THI0349” value at αLβ2/ICAM-1 amounted to 1.2. Besides, on α4β1/VCAM-1, the “Group against VCAM” value is recorded as “I (Group I maintains at least the same potency or better up to more than twice that of the EC50 of THI0349 ran on the same plate)”.
Consider `COc1cccc(CN(C)c2nc(C)cs2)c1` [Compound 100, N-(3-methoxybenzyl)-N,4-dimethylthiazol-2-amine], for which the “LAD Raw Fluorescence Units against LFA-1; Dose 3 µM; Ratio of raw counts Compound/THI0349” value on αLβ2/ICAM-1 stood at 0.05. Besides, the “Group against VCAM” value on α4β1/VCAM-1 is “III (Group III more than five times the EC50 of THI0349)”.
In the same order, the values of `COc1cccc(CN(Cc2cccc(OC)c2)c2nc(COCCN3CCOCC3)cs2)c1` [Compound 64, N,N-bis(3-methoxybenzyl)-4-((2-morpholinoethoxy)methyl)thiazol-2-amine] are 0.31 and “I (Group I maintains at least the same potency or better up to more than twice that of the EC50 of THI0349 ran on the same plate)”.
In the same order, the values of `COc1cccc(CN(Cc2cccc(OC)c2)c2nc(COCCOc3cccc(N(C)C)c3)cs2)c1` [Compound 48, 4-((2-(3-(dimethylamino)phenoxy)ethoxy)methyl)-N,N-bis(3-methoxybenzyl)thiazol-2-amine] are 0.43 and “I (Group I maintains at least the same potency or better up to more than twice that of the EC50 of THI0349 ran on the same plate)”.
Consider `COc1cccc(COCc2cccc(N(Cc3cccc(OC)c3)Cc3cccc(OC)c3)c2)c1` [Compound 90, N,N-bis(3-methoxybenzyl)-3-(((3-methoxybenzyl)oxy)methyl)aniline], for which the “LAD Raw Fluorescence Units against LFA-1; Dose 3 µM; Ratio of raw counts Compound/THI0349” value at αLβ2/ICAM-1 was determined as 0.09. In addition, the “Group against VCAM” value at α4β1/VCAM-1 was “III (Group III more than five times the EC50 of THI0349)”.
With `COc1ccc(CN(Cc2ccc(OC)cc2)c2nc(COCCOCCO)cs2)cc1` [Compound 34, 2-(2-((2-(bis(4-methoxybenzyl)amino)thiazol-4-yl)methoxy)ethoxy)ethanol], on αLβ2/ICAM-1, the “LAD Raw Fluorescence Units against LFA-1; Dose 3 µM; Ratio of raw counts Compound/THI0349” value amounted to 0.34. The “Group against VCAM” value on α4β1/VCAM-1 is on record as “III (Group III more than five times the EC50 of THI0349)”.
Consider `COc1cccc(COc2cc(C)n(N(Cc3cccc(OC)c3)Cc3cccc(OC)c3)c(=O)c2)c1` [Compound 127, 1-(bis(3-methoxybenzyl)amino)-4-((3-methoxybenzyl)oxy)-6-methylpyridin-2(1H)-one], for which, at αLβ2/ICAM-1, the “LAD Raw Fluorescence Units against LFA-1; Dose 3 µM; Ratio of raw counts Compound/THI0349” value came out at 0.75. Moreover, on α4β1/VCAM-1, the “Group against VCAM” value is listed as “II (Group II is more than twice that of THI0349 but less than five times THI0349's EC50)”.
On to `COc1cccc(COCc2csc(N(Cc3ccc(-n4cccn4)cc3)Cc3cccc(OC)c3)n2)c1` [Compound 104, N-(4-(1H-pyrazol-1-yl)benzyl)-N-(3-methoxybenzyl)-4-((3-methoxybenzyloxy)methyl)thiazol-2-amine], for which the “LAD Raw Fluorescence Units against LFA-1; Dose 3 µM; Ratio of raw counts Compound/THI0349” value at αLβ2/ICAM-1 amounted to 0.28. Also, the “Group against VCAM” value on α4β1/VCAM-1 was “I (Group I maintains at least the same potency or better up to more than twice that of the EC50 of THI0349 ran on the same plate)”.
Turning to `COc1cccc(CN(Cc2cccc(OC)c2)c2nc(COCCOCCN3CCOCC3)cs2)c1` [Compound 61, N,N-bis(3-methoxybenzyl)-4-((2-(2-morpholinoethoxy)ethoxy)methyl)thiazol-2-amine], the “LAD Raw Fluorescence Units against LFA-1; Dose 3 µM; Ratio of raw counts Compound/THI0349” value at αLβ2/ICAM-1 is on record as 1.9. The “Group against VCAM” value at α4β1/VCAM-1 is “I (Group I maintains at least the same potency or better up to more than twice that of the EC50 of THI0349 ran on the same plate)”.
In the same order, the values of `COc1cccc(CN(Cc2cccc(N(C)C)c2)c2nc(CN3CCOCC3)cs2)c1` [Compound 73, N-(3-(dimethylamino)benzyl)-N-(3-methoxybenzyl)-4-(morpholinomethyl)thiazol-2-amine] are 0.12 and “II (Group II is more than twice that of THI0349 but less than five times THI0349's EC50)”.
In the case of `COc1cccc(CN(Cc2cccc(OC)c2)c2nc(COCCOc3cccc(OC)c3)cs2)c1` [Compound 47, N,N-bis(3-methoxybenzyl)-4-((2-(3-methoxyphenoxy)ethoxy)methyl)thiazol-2-amine], the “LAD Raw Fluorescence Units against LFA-1; Dose 3 µM; Ratio of raw counts Compound/THI0349” value at αLβ2/ICAM-1 was found to be 0.7. For the same compound, the “Group against VCAM” value at α4β1/VCAM-1 is “I (Group I maintains at least the same potency or better up to more than twice that of the EC50 of THI0349 ran on the same plate)”.
Consider `COc1cccc(CN(Cc2cccc(OC)c2)c2nc(COCCOCCOCc3ccccc3C)cs2)c1` [Compound 54, N,N-bis(3-methoxybenzyl)-4-((2-(2-((2-methylbenzyl)oxy)ethoxy)ethoxy)methyl)thiazol-2-amine], for which the “LAD Raw Fluorescence Units against LFA-1; Dose 3 µM; Ratio of raw counts Compound/THI0349” value on αLβ2/ICAM-1 was found to be 1.8. Besides, the “Group against VCAM” value on α4β1/VCAM-1 is listed as “I (Group I maintains at least the same potency or better up to more than twice that of the EC50 of THI0349 ran on the same plate)”.
Turning to `COc1cccc(COc2ccc(N(Cc3cccc(OC)c3)Cc3cccc(OC)c3)cc2)c1` [Compound 91, N,N-bis(3-methoxybenzyl)-4-((3-methoxybenzyl)oxy)aniline], on αLβ2/ICAM-1, the “LAD Raw Fluorescence Units against LFA-1; Dose 3 µM; Ratio of raw counts Compound/THI0349” value was 0.09. For the same compound, the “Group against VCAM” value on α4β1/VCAM-1 was “III (Group III more than five times the EC50 of THI0349)”.
As for `COc1ccc(CCNC(=O)c2coc(N(Cc3cccc(OC)c3)Cc3cccc(OC)c3)n2)cc1` [Compound 19, 2-(bis(3-methoxybenzyl)amino)-N-(4-methoxyphenethyl)oxazole-4-carboxamide], on αLβ2/ICAM-1, the “LAD Raw Fluorescence Units against LFA-1; Dose 3 µM; Ratio of raw counts Compound/THI0349” value stood at 0.12. Also, the “Group against VCAM” value on α4β1/VCAM-1 was “II (Group II is more than twice that of THI0349 but less than five times THI0349's EC50)”.
Consider `COc1cccc(COc2cccc(N(Cc3cccc(OC)c3)Cc3cccc(OC)c3)c2)c1` [Compound 92, N,N-bis(3-methoxybenzyl)-3-((3-methoxybenzyl)oxy)aniline], for which the “LAD Raw Fluorescence Units against LFA-1; Dose 3 µM; Ratio of raw counts Compound/THI0349” value at αLβ2/ICAM-1 is 0.6. The “Group against VCAM” value at α4β1/VCAM-1 is on record as “III (Group III more than five times the EC50 of THI0349)”.
`CCOC(=O)c1csc(N(Cc2ccc(-n3ccnc3)cc2)Cc2cccc(OC)c2)n1` [Compound 113, ethyl 2-((4-(1H-imidazol-1-yl)benzyl)(3-methoxybenzyl)amino)thiazole-4-carboxylate]: on αLβ2/ICAM-1, the “LAD Raw Fluorescence Units against LFA-1; Dose 3 µM; Ratio of raw counts Compound/THI0349” value came to 0.64. Besides, the “Group against VCAM” value at α4β1/VCAM-1 is given as “II (Group II is more than twice that of THI0349 but less than five times THI0349's EC50)”.
